One assay deals with Adenosine receptor A2a (Homo sapiens, UniProt P29274).
The target in the next assay is T1, Adenosine receptor A3 (Homo sapiens, UniProt P0DMS8).
T1 sequence (P0DMS8 whole entry): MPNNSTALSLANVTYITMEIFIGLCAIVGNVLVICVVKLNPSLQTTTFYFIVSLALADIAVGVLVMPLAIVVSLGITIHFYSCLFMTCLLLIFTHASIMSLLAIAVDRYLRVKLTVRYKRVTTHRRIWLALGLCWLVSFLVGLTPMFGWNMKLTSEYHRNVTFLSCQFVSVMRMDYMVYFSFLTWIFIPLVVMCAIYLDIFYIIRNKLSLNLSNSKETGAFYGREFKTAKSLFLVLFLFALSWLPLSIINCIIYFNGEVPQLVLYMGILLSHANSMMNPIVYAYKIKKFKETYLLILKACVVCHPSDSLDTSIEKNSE

Assay [1] concerns the target T2, Alpha-1A adrenergic receptor (Homo sapiens, UniProt P35348).
T2 sequence (P35348 whole entry): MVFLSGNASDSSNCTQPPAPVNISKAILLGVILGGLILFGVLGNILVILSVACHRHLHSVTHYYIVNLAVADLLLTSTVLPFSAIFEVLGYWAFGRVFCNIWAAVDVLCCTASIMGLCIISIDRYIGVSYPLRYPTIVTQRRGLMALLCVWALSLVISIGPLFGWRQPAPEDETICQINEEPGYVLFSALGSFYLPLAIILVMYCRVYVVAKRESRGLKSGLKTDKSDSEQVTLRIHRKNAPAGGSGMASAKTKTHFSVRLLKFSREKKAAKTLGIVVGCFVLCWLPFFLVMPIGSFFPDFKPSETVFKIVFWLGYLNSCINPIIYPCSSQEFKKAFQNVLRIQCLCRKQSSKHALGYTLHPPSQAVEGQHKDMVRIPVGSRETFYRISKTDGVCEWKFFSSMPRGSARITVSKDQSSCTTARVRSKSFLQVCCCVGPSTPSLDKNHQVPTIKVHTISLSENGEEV

Assay [2] deals with T3, Alpha-2C adrenergic receptor (Homo sapiens, UniProt P18825).
T3 sequence (P18825 whole entry): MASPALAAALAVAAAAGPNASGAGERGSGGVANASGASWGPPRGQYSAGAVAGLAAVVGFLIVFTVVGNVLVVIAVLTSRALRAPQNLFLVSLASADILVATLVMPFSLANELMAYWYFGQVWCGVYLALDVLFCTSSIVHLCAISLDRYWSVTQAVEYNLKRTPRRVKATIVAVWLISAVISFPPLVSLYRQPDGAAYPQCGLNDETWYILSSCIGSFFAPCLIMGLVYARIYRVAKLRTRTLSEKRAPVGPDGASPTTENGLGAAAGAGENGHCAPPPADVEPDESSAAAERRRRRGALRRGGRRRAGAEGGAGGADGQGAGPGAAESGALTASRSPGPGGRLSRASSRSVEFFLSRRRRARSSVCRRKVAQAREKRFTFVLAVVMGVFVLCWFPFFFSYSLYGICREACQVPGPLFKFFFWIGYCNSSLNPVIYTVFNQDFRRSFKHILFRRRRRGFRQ
Type of assay: functional.

Assay [3] concerns the target T4, Cholecystokinin receptor type A (Homo sapiens, UniProt P32238).
T4 sequence (P32238 whole entry): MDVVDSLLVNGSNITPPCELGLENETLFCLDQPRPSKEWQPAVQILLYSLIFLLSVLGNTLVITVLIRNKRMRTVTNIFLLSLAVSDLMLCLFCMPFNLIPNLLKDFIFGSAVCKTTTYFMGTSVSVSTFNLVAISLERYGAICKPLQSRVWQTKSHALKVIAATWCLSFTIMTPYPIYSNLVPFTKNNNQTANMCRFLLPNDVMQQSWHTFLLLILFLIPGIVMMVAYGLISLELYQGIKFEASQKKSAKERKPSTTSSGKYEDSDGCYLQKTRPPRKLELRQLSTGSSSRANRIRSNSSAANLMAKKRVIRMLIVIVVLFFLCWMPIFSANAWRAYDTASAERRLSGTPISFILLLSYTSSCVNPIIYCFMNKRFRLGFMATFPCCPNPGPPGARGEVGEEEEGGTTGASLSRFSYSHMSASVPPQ

Assay [4] deals with Muscarinic acetylcholine receptor M3 (Homo sapiens, UniProt P20309).
Assay [5] has as its target T5, 5-hydroxytryptamine receptor 1A (Homo sapiens, UniProt P08908).
T5 sequence (P08908 whole entry): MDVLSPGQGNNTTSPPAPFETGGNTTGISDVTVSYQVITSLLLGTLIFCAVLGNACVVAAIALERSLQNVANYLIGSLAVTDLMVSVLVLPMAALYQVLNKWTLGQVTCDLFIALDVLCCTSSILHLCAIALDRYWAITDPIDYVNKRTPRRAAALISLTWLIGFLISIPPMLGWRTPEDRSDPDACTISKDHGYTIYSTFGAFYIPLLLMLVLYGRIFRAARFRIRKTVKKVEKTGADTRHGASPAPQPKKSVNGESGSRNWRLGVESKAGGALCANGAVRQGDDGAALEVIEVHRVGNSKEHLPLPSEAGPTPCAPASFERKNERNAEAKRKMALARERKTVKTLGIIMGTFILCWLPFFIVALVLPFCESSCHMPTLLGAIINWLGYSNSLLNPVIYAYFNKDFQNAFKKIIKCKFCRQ
Type of assay: functional, cell-based.

Assay [6] has as its target 5-hydroxytryptamine receptor 2A (Homo sapiens, UniProt P28223). Type of assay: functional, cell-based.
The target in a further assay is Melanocortin receptor 3 (Homo sapiens, UniProt P41968).
Assay [7] addresses T6, Amine oxidase [flavin-containing] A (Homo sapiens, UniProt P21397).
T6 sequence (P21397 whole entry): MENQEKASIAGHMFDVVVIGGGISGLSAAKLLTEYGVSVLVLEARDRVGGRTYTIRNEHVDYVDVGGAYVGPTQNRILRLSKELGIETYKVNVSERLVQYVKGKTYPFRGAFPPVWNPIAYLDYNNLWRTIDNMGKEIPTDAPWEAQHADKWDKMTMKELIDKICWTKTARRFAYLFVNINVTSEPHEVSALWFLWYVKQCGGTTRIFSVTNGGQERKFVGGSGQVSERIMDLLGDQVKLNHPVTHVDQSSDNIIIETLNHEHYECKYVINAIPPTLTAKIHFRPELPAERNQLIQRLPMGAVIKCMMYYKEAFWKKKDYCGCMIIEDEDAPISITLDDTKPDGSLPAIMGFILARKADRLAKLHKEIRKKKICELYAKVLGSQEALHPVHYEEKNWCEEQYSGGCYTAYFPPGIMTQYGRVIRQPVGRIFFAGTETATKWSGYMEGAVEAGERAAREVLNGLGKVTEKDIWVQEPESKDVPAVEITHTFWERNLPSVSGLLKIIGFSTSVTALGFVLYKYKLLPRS
Type of assay: functional.

In a further assay the target is Cannabinoid receptor 1 (Homo sapiens, UniProt P21554). Type of assay: functional, cell-based.

From ChEMBL document CHEMBL5291721, “A preclinical secondary pharmacology resource illuminates target-adverse drug reaction associations of marketed drugs” (Nat Commun, 2023) come the findings set out here.

Bounds are passed on as bounds.
Note: assay procedure not described here.

Sequence of Muscarinic acetylcholine receptor M3 (P20309 whole entry): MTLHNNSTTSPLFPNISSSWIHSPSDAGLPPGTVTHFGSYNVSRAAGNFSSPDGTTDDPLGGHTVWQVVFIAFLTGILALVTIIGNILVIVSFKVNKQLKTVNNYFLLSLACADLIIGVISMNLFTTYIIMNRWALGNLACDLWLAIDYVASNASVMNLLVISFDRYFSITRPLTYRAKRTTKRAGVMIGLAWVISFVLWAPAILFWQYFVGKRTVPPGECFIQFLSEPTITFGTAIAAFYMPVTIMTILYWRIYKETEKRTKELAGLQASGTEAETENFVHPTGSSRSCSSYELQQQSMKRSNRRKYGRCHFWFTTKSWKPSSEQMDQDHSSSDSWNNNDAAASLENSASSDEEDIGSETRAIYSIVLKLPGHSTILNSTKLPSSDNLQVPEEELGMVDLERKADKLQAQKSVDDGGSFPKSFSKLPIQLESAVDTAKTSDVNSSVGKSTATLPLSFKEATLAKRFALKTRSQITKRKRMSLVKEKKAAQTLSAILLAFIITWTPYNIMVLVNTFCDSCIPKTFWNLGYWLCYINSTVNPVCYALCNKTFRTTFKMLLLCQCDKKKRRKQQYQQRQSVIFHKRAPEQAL
Sequence of Cannabinoid receptor 1 (P21554 whole entry): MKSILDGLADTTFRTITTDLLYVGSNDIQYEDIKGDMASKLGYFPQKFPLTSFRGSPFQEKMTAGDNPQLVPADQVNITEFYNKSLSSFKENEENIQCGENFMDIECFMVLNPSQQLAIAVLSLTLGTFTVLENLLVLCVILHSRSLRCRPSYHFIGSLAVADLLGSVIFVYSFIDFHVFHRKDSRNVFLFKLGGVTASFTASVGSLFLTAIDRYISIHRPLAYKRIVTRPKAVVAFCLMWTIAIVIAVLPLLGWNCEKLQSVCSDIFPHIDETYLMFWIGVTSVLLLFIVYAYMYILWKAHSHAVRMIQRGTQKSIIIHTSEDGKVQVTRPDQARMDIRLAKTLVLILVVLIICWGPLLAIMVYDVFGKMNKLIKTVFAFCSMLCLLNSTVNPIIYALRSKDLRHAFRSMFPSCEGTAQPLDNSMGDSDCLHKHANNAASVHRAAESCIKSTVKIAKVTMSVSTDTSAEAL
Sequence of Adenosine receptor A2a (P29274 whole entry): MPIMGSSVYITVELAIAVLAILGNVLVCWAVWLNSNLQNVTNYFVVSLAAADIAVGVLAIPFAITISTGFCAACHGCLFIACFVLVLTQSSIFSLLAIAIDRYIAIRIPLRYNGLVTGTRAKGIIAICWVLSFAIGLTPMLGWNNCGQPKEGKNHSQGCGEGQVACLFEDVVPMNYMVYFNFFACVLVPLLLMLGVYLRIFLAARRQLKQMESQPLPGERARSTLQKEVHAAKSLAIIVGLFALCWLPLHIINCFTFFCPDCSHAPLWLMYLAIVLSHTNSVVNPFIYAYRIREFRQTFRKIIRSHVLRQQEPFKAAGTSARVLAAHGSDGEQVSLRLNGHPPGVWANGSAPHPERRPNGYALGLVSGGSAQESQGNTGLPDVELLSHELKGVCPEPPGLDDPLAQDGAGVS
Sequence of Melanocortin receptor 3 (P41968 whole entry): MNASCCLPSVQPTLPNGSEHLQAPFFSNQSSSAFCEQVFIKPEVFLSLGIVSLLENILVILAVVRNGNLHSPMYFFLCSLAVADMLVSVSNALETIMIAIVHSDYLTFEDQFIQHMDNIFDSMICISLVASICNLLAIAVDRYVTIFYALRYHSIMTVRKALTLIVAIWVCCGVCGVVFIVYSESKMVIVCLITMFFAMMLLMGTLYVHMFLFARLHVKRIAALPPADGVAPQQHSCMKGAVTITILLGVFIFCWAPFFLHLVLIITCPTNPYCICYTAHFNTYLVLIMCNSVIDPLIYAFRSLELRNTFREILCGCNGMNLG
Sequence of 5-hydroxytryptamine receptor 2A (P28223 whole entry): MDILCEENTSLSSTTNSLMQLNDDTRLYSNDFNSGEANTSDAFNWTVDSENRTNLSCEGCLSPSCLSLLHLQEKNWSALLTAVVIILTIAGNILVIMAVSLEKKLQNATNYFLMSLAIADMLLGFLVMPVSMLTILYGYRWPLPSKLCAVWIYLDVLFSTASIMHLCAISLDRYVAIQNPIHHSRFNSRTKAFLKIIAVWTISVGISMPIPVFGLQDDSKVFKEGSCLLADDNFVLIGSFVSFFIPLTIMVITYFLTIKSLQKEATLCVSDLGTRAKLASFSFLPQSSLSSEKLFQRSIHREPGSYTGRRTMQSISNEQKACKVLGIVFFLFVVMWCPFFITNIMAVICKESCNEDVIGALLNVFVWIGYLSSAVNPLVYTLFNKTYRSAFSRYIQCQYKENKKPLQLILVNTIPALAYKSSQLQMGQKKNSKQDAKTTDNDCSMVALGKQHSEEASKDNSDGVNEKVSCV

Regarding `OCC(O)COc1ccc(Cl)cc1` (stereo unspecified), the half-maximal activity concentration (AC50) was greater than 10 µM at Adenosine receptor A2a; greater than 10 µM at Adenosine receptor A3; greater than 10 µM in [1]; greater than 10 µM in assay [2]; greater than 10 µM in assay [3]; greater than 30 µM in [4]. The AC50 (in assay [5]; in [6]; at Melanocortin receptor 3; in [7]) was greater than 10 µM in each case.

As for `CC(=O)OCC1=C(C(=O)O)N2C(=O)[C@@H](NC(=O)CSc3ccncc3)[C@H]2SC1` [CEPHAPIRIN], the AC50 at Adenosine receptor A2a was greater than 10 µM; at Adenosine receptor A3, greater than 10 µM; in assay [1] it was greater than 10 µM; in assay [2], greater than 10 µM; in [3] it was greater than 10 µM; in assay [4], greater than 30 µM. Also, the AC50 (in assay [5]; in assay [6]; on Melanocortin receptor 3; in assay [7]) was greater than 10 µM throughout.

For the compound `Nc1nc(Cl)nc2c1ncn2[C@@H]1O[C@H](CO)[C@@H](O)[C@@H]1F` [CLOFARABINE], the AC50 is 22.1 µM at Adenosine receptor A2a; 18.2 µM on Adenosine receptor A3; 29 µM in [1]; greater than 30 µM in assay [2]; greater than 30 µM in assay [3]; greater than 30 µM in assay [4]. The concentration at half-maximal activity (AC50) (in assay [5]; in assay [6]; on Melanocortin receptor 3; in assay [7]) was greater than 30 µM each time.

Consider `CN(C)CCOC(=O)C(c1ccccc1)C1(O)CCCC1` (stereo unspecified) [CYCLOPENTOLATE], for which the AC50 at Adenosine receptor A2a is greater than 10 µM; at Adenosine receptor A3, greater than 10 µM; in [1] it was greater than 30 µM; in [2] it was greater than 30 µM; in assay [3] it was greater than 10 µM; in [4], 0.04 µM. Moreover, the AC50 in [5] was greater than 10 µM; in assay [6], greater than 10 µM; on Melanocortin receptor 3, greater than 10 µM; in [7], greater than 30 µM.

Regarding `CCN(CC)C(C)C(=O)c1ccccc1` (stereo unspecified) [DIETHYLPROPION], the AC50 at Adenosine receptor A2a is greater than 30 µM; on Adenosine receptor A3, greater than 30 µM; in assay [1], greater than 10 µM; in assay [2], greater than 10 µM; in assay [3], greater than 30 µM; in assay [4], greater than 30 µM. For the same compound, the AC50 is greater than 30 µM at Cannabinoid receptor 1, greater than 10 µM in assay [5], greater than 30 µM on Melanocortin receptor 3 and greater than 10 µM in [7].

For the compound `Cc1cnc(Nc2ccc(OCCN3CCCC3)cc2)nc1Nc1cccc(S(=O)(=O)NC(C)(C)C)c1` [FEDRATINIB], the half-maximal activity concentration (AC50) was 3.75 µM at Adenosine receptor A2a; 6.83 µM on Adenosine receptor A3; greater than 10 µM in [1]; 7.4 µM in assay [2]; greater than 30 µM in assay [3]; 5.7 µM in assay [4]. Moreover, the AC50 at Melanocortin receptor 3 is greater than 30 µM; in assay [7] it was greater than 10 µM.

Turning to `CN1C(=O)CN=C(c2ccccc2F)c2cc([N+](=O)[O-])ccc21` [FLUNITRAZEPAM], the AC50 on Adenosine receptor A2a is greater than 30 µM; on Adenosine receptor A3 it was greater than 30 µM; in assay [1], greater than 10 µM; in [2] it was greater than 10 µM; in assay [4], greater than 30 µM; at Cannabinoid receptor 1, greater than 30 µM. In addition, the AC50 in assay [5] is greater than 10 µM; at Melanocortin receptor 3, 18.6 µM; in [7], greater than 10 µM.

On to `OCC(CO)N[C@H]1C[C@](O)(CO)[C@@H](O)[C@H](O)[C@H]1O` [VOGLIBOSE], for which the AC50 (on Adenosine receptor A2a; at Adenosine receptor A3; in [1]; in assay [2]; in [3]; in assay [4]) was greater than 30 µM each time. The AC50 (in [6]; on Melanocortin receptor 3; in assay [7]) was greater than 30 µM each time.

Regarding TEPRENONE, the half-maximal activity concentration (AC50) was greater than 30 µM at Adenosine receptor A2a; greater than 30 µM on Adenosine receptor A3; greater than 10 µM in assay [1]; greater than 10 µM in assay [2]; greater than 30 µM in assay [3]; greater than 30 µM in assay [4]. The AC50 is greater than 30 µM on Cannabinoid receptor 1, greater than 30 µM in [5], greater than 30 µM on Melanocortin receptor 3 and greater than 10 µM in assay [7].

What is called AC50 is the concentration at which the activity in the assay is half-maximal. A lower AC50 goes with greater potency.
